Tested on: His-tagged proteins
Assay: surface plasmon resonance, immobilized chelator, protein loss during wash
Format: binding
Settings: immobilized for surface plasmon resonance measurements
Source text: The affinity of the soluble chelator of the present invention for His-tagged proteins is much higher, compared to the NTA analoga. […] So, a stable, non-reversible protein binding via affinity bonds between metal and poly-His is feasible.

Structure (SMILES): O=C(O)CN(CC(=O)O)CC(=O)O [NTA, nitrilotriacetic acid]
- protein loss from the chip: protein leaching during wash
